In patent US9072734B2, “Quaternary ammonium salt compounds” (Teijin Pharma Limited, priority 2009, dated 2015):
pEC50, pIC50: −log10 of the molar value. Where a name gives a salt, the structure may show the parent alone.

How the values were obtained:
[1] = molecular target: T1, human M3 muscarinic receptor (Homo sapiens, UniProt P20309); test: Competition binding assays to human M3 muscarinic receptor ([3H]-NMS displacement, membrane fractions); settings: competition with 1 nM [3H]-NMS
T1 construct: expressed in transfected cells; host or cells: CHO-K1
T1 sequence (P20309 whole entry): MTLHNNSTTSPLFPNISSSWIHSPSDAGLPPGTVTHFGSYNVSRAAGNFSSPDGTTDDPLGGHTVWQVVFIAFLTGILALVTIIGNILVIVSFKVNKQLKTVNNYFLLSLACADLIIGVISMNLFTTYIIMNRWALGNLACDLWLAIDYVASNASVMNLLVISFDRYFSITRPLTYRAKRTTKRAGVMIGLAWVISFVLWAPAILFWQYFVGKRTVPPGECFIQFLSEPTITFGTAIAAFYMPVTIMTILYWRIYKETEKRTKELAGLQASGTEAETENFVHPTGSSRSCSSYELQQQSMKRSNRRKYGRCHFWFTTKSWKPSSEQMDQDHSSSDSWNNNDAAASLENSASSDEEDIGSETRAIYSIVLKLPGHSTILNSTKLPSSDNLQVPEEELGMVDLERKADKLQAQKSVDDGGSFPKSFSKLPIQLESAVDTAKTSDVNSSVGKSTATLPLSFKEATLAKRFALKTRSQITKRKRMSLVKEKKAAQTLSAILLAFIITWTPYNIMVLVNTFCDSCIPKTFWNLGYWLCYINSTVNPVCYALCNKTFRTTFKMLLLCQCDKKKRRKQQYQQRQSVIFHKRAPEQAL
Method: Membrane fractions of human M3 muscarinic receptor were purchased from PerkinElmer, Inc. and stored at −80° C. until use. Phosphate buffered saline (PBS(−), Invitrogen, Co.) was used as assay buffer. The membrane fractions of human M3 muscarinic receptor (10-15 μg of membrane protein) and 1 nM L-[N-methyl-3H]scopolamine methyl chloride ([3H]—NMS) (NET636, 2.59 TBq/mmol, PerkinElmer, Inc.) were added to a final volume of 100 μL and incubated for 2 hours at room temperature (total binding). […] The amount of nonspecific binding was determined in the presence of 5 μM atoropine. […] The filter plates were washed three times with a washing solution (50 mM Tris hydrochloric acid pH 7.4, 0.9% sodium chloride) to remove unbound radioactivity. The plates were then dried and 40 μL Microscint-20 liquid TopCount microplate scintillation cocktail (PerkinElmer Inc.) was added and plates were counted in a Packard TopCount liquid scintillation counter (PerkinElmer, Inc.). The percentage of the binding inhibition by the test compound was calculated according to the following formula. (%)Percentage of binding inhibition=[(Radioactivity of test compound-added sample−Amount of nonspecific binding)/(Amount of total binding−Amount of nonspecific binding)]×100 […]

[2] = molecular target: T1, human M3 muscarinic receptor; test: Inhibitory effect on methacholine-induced calcium influx, FLIPR assay, CHO-K1 cells stably expressing the human M3 muscarinic receptor; type: cell-based; settings: inhibition of calcium influx induced by methacholine
Procedure, shortened: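 Dye-loaded hM3 CHO-K1 cells were preincubated 180 s with compound solutions prepared at 10 two-fold concentrations (0.01–1000 nM). A 30 nM methacholine solution was then added. Fluorescence was traced for 170 s; max−min signal gave % inhibition against agonist and no-agonist controls, and IC50 came from a four-parameter logistic fit.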

[3] = molecular target: T2, human β2 adrenergic receptor (Homo sapiens, UniProt P07550); test: Whole-cell cAMP Flashplate assay using CHO-K1 cells stably expressing human β2 adrenergic receptor; type: cell-based; settings: cAMP production
T2 construct: expressed in transfected cells; host or cells: CHO-K1
T2 sequence (P07550 whole entry): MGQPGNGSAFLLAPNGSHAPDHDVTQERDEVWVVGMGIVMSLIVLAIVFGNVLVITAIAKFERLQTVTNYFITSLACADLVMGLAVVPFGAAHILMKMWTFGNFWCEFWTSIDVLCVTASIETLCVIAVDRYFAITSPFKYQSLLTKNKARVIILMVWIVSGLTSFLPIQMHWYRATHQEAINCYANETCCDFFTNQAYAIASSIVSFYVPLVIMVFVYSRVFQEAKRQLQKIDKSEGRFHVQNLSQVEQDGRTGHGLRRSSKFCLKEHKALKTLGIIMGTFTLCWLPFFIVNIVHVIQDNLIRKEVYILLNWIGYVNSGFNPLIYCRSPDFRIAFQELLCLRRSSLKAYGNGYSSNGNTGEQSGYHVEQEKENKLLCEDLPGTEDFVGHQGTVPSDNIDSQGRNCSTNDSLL

C[N+]1(C)CCC(OC(=O)Nc2cc(CCC(=O)Nc3ccc(CNC[C@H](O)c4ccc(O)c5[nH]c(=O)ccc45)cc3)ccc2-c2ccccc2)CC1 [Example 1, 4-({[5-(2-{[4-({[(2R)-2-hydroxy-2-(8-hydroxy-2-oxo-1,2-dihydroquinolin-5-yl)ethyl]amino}methyl)phenyl]carbamoyl}ethyl)-2-phenylphenyl]carbamoyl}oxy)-1,1-dimethylpiperidin-1-ium trifluoroacetate]
pIC50 [1]: > 8.00
pIC50 [2]: 8.19
pEC50 [3]: 8.89

COc1cc(NC(=O)CCCCc2ccc(-c3ccccc3)c(NC(=O)OC3CC[N+](C)(C)CC3)c2)c(Cl)cc1CNC[C@H](O)c1ccc(O)c2[nH]c(=O)ccc12 [Example 51, 4-({[5-(4-{[2-chloro-4-({[(2R)-2-hydroxy-2-(8-hydroxy-2-oxo-1,2-dihydroquinolin-5-yl)ethyl]amino}methyl)-5-methoxyphenyl]carbamoyl}butyl)-2-phenylphenyl]carbamoyl}oxy)-1,1-dimethylpiperidin-1-ium trifluoroacetate]
pIC50 [1]: > 8.00
pIC50 [2]: 7.88
pEC50 [3]: 9.52
